One substance from patent publication US12138274B2, “Compositions and methods for the treatment of peripheral artery disease and cardiopulmonary diseases” (BOARD OF REGENTS OF THE UNIVERSITY OF NEBRASKA, priority 2018, dated 2024) can be followed below.

Holding throughout (format): in vivo, rat
In series [1] the test system is Interferon Regulatory Factor 8 (IRF8). Nature of the series: IRF8 protein expression in T1-T4 DRGs and stellate ganglia after bleomycin lung injury. The following applies: 4-weeks post-bleomycin rats.
Series [2] relates to vagotomized rats. The series is described as follows: Pressor and sympatho-excitatory response to topical bradykinin in bleomycin-treated rats. The following applies: BK 10 μg/ml; 4 weeks after bleomycin, compared to sham. How it is done: For measuring vitals of the rats, a Millar catheter (SPR 524; size, 3.5-Fr; Millar Instruments, Houston, TX) was advanced through the right common carotid artery and progressed into the aorta and left in place to record arterial pressure (AP), mean arterial pressure (MAP), and heart rate (HR), using PowerLab (Model 16S) and LabChart software (version 7.0) (ADInstruments, Colorado Springs, CO). Renal sympathetic nerve activity (RSNA) and integrated RSNA (iRSNA) were also measured. RSNA was recorded as described (Gao, et al. (2005) Hypertension 45:1173-1181; Wang, et al. (2010) J. Appl. Physiol., 108:1365-1375; Becker, et al. (2016) J. Physiol., 594:5711-5725). In brief, the left kidney, renal artery, and nerves were exposed through a left retroperitoneal flank incision. Sympathetic nerves running on or beside the renal artery were identified. The renal sympathetic nerves were placed on a pair of platinum-iridium recording electrodes and cut distally to avoid recording afferent activity. Nerve activity was amplified ([…]) and filtered (bandwidth: 100 to 3000 Hz) using a Grass P55C preamplifier. […] At the end of the experiment, the rat was euthanized with an overdose of pentobarbital sodium. Respective noise levels were subtracted from the nerve recording data before percent changes from baseline were calculated. […]

Series [3] deals with rats. The series is described as follows: Premature ventricle contractions after intra-tracheal bleomycin. As to conditions: single intra-tracheal delivery 2.5 mg/kg. The text has this:
Bleomycin induces experimental lung fibrosis in a variety of animal models and it causes inflammatory and fibrotic reactions within a short period of time, even more so after intratracheal instillation.

As for bleomycin, the “IRF8 protein expression in T1-T4 DRGs and stellate ganglia (FIG. 12)” value in series [1] is on record as “increases”. Moreover, the “pressor and sympatho-excitatory response to topical BK (FIG. 13)” value in series [2] is “exaggerated pressor and sympatho-excitatory response”. For the same substance, the “premature ventricle contractions (PVC) (FIG. 14)” value in series [3] is recorded as “dramatic increase”.
